Experimental data as given in patent publication US12077503B2, “Substituted cyclic amides and their use as herbicides” (FMC CORPORATION, priority 2015, dated 2024).

How the values were obtained:
Format in all cases: in vivo
[1] = system: ducksalad (Heteranthera limosa); assay: Test B flooded paddy test; details: Heteranthera limosa, 250 g ai/ha, Flood; 0 to 100 scale where 0 is no effect and 100 is complete control; read-out: Ducksalad plant response rating
Method in brief: (§1)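 Evaluation by eye, against controls, occurred 13–15 d post-treatment in a greenhouse, using a 0 (no effect) to 100 (complete control) scale. Application was into the paddy water, 3 cm deep over the soil, on 2-leaf plants.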

[2] = system: sedge, umbrella (small-flower umbrella sedge, Cyperus difformis); assay: Test B flooded paddy test; details: Cyperus difformis, 250 g ai/ha, Flood; 0 to 100 scale where 0 is no effect and 100 is complete control; read-out: Sedge, Umbrella plant response rating
Method in brief: as §1

rice (Oryra sativa) = assay: Test B flooded paddy test; details: Oryza sativa, 250 g ai/ha, Flood; 0 to 100 scale where 0 is no effect and 100 is complete control; read-out: Rice plant response rating
Method in brief: as §1

[3] = system: barnyardgrass (Echinochloa crus-galli); assay: Test B flooded paddy test; details: Echinochloa crus-galli, 250 g ai/ha, Flood; 0 to 100 scale where 0 is no effect and 100 is complete control; read-out: Barnyardgrass plant response rating
Method in brief: as §1

[4] = system: barnyardgrass (Echinochloa crus-galli); assay: Test A preemergence; details: Echinochloa crus-galli, pre-emergence, 240 h, 0 to 100 scale where 0 is no effect and 100 is complete control, read-out: Barnyardgrass plant response rating; for pest or weed control at 31 g/ha: 31 g ai/ha, Preemergence; for pest or weed control at 125 g/ha: 125 g ai/ha, preemergence, visual injury rating, approximately 10 d
Method in brief: (§2)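 Seeds sprayed preemergence with a directed soil spray, or plants at 2 to 10 cm height and one- to two-leaf stage sprayed postemergence, with test chemicals in a non-phytotoxic solvent mixture containing surfactant, in loam soil–sand blend. Injury rated visually against untreated controls after about 10 d in greenhouse, 0 (no effect) to 100 (complete control).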

[5] = system: ryegrass, Italian (Italian ryegrass, Lolium multiflorum); assay: Test A preemergence; details: Lolium multiflorum, pre-emergence, 240 h, 0 to 100 scale where 0 is no effect and 100 is complete control, read-out: Ryegrass, Italian plant response rating; for pest or weed control at 31 g/ha: 31 g ai/ha, Preemergence; for pest or weed control at 125 g/ha: 125 g ai/ha, preemergence, visual injury rating, approximately 10 d
Method in brief: as §2

[6] = system: giant foxtail (Setaria faberii); assay: Test A preemergence; details: Setaria faberi, pre-emergence, 240 h, 0 to 100 scale where 0 is no effect and 100 is complete control, read-out: Foxtail, Giant plant response rating; for pest or weed control at 31 g/ha: 31 g ai/ha, Preemergence; for pest or weed control at 125 g/ha: 125 g ai/ha, preemergence, visual injury rating, approximately 10 d
Method in brief: as §2

Kochia (Kochia scoparia) [7] = assay: Test A preemergence; details: Bassia scoparia, pre-emergence, 240 h, 0 to 100 scale where 0 is no effect and 100 is complete control, read-out: Kochia plant response rating; for pest or weed control at 31 g/ha: 31 g ai/ha, Preemergence; for pest or weed control at 125 g/ha: 125 g ai/ha, preemergence, visual injury rating, approximately 10 d
Method in brief: as §2

[8] = system: pigweed (Amaranthus retroflexus); assay: Test A preemergence; details: Amaranthus retroflexus, pre-emergence, 240 h, 0 to 100 scale where 0 is no effect and 100 is complete control, read-out: Pigweed plant response rating; for pest or weed control at 31 g/ha: 31 g ai/ha, Preemergence; for pest or weed control at 125 g/ha: 125 g ai/ha, preemergence, visual injury rating, approximately 10 d
[9] = system: ragweed (common ragweed, Ambrosia elatior); assay: Test A preemergence; details: Ambrosia artemisiifolia, pre-emergence, 240 h, 0 to 100 scale where 0 is no effect and 100 is complete control, read-out: Ragweed plant response rating; for pest or weed control at 31 g/ha: 31 g ai/ha, Preemergence; for pest or weed control at 125 g/ha: 125 g ai/ha, preemergence, visual injury rating, approximately 10 d
Method in brief: as §2

[10] = system: blackgrass (Alopecurus myosuroides); assay: Test A postemergence; details: Alopecurus myosuroides, post-emergence, 240 h, Postemergence, read-out: Blackgrass plant response rating (0 to 100 scale); for pest or weed control at 125 g/ha: 125 g ai/ha, visual rating about 10 d after treatment; for pest or weed control at 31 g/ha: 31 g ai/ha, 0 is no effect, 100 is complete control
Method in brief: as §2

[11] = system: wheat (Triticum aestivum); assay: Test A postemergence; details: Triticum aestivum, post-emergence, 240 h, Postemergence, read-out: Wheat plant response rating (0 to 100 scale); for plant injury at 125 g/ha: 125 g ai/ha, visual rating about 10 d after treatment; for plant injury at 31 g/ha: 31 g ai/ha, 0 is no effect, 100 is complete control
Method in brief: as §2

[12] = system: barnyardgrass (Echinochloa crus-galli); assay: Test A postemergence; details: Echinochloa crus-galli, post-emergence, 240 h, Postemergence; for pest or weed control at 125 g/ha: 125 g ai/ha, visual rating about 10 d after treatment, read-out: Barnyardgrass plant response rating (0 to 100 scale, 0 no effect, 100 complete control); for pest or weed control at 31 g/ha: 31 g ai/ha, 0 is no effect, 100 is complete control, read-out: Barnyardgrass plant response rating (0 to 100 scale)
Method in brief: as §2

[13] = system: ryegrass, Italian (Italian ryegrass, Lolium multiflorum); assay: Test A postemergence; details: Lolium multiflorum, post-emergence, 240 h, Postemergence, read-out: Ryegrass, Italian plant response rating (0 to 100 scale); for pest or weed control at 125 g/ha: 125 g ai/ha, visual rating about 10 d after treatment; for pest or weed control at 31 g/ha: 31 g ai/ha, 0 is no effect, 100 is complete control
Method in brief: as §2

[14] = system: giant foxtail (Setaria faberii); assay: Test A postemergence; details: Setaria faberi, post-emergence, 240 h, Postemergence, read-out: Foxtail, Giant plant response rating (0 to 100 scale); for pest or weed control at 125 g/ha: 125 g ai/ha, visual rating about 10 d after treatment; for pest or weed control at 31 g/ha: 31 g ai/ha, 0 is no effect, 100 is complete control
Method in brief: as §2

Kochia (Kochia scoparia) [15] = assay: Test A postemergence; details: Bassia scoparia, post-emergence, 240 h, Postemergence, read-out: Kochia plant response rating (0 to 100 scale); for pest or weed control at 125 g/ha: 125 g ai/ha, visual rating about 10 d after treatment; for pest or weed control at 31 g/ha: 31 g ai/ha, 0 is no effect, 100 is complete control
Method in brief: as §2

[16] = system: pigweed (Amaranthus retroflexus); assay: Test A postemergence; details: Amaranthus retroflexus, post-emergence, 240 h, Postemergence, read-out: Pigweed plant response rating (0 to 100 scale); for pest or weed control at 125 g/ha: 125 g ai/ha, visual rating about 10 d after treatment; for pest or weed control at 31 g/ha: 31 g ai/ha, 0 is no effect, 100 is complete control
Method in brief: as §2

[17] = system: Galium (catchweed bedstraw, Galium aparine); assay: Test A postemergence; details: Galium, post-emergence, 240 h, Postemergence, read-out: Galium plant response rating (0 to 100 scale); for pest or weed control at 125 g/ha: 125 g ai/ha, visual rating about 10 d after treatment; for pest or weed control at 31 g/ha: 31 g ai/ha, 0 is no effect, 100 is complete control
Method in brief: as §2

[18] = system: ragweed (common ragweed, Ambrosia elatior); assay: Test A postemergence; details: Ambrosia artemisiifolia, post-emergence, 240 h, Postemergence, read-out: Ragweed plant response rating (0 to 100 scale); for pest or weed control at 125 g/ha: 125 g ai/ha, visual rating about 10 d after treatment; for pest or weed control at 31 g/ha: 31 g ai/ha, 0 is no effect, 100 is complete control
Method in brief: as §2

corn (Zea mays) = assay: Test A postemergence; details: Zea mays, post-emergence, 240 h, Postemergence, read-out: Corn plant response rating (0 to 100 scale); for plant injury at 125 g/ha: 125 g ai/ha, visual rating about 10 d after treatment; for plant injury at 31 g/ha: 31 g ai/ha, 0 is no effect, 100 is complete control
Method in brief: as §2

Structure (SMILES)	pest or weed control at 250 g/ha [1] [%]	pest or weed control at 250 g/ha [2] [%]	pest or weed control at 250 g/ha (rice (Oryra sativa)) [%]	pest or weed control at 250 g/ha [3] [%]	pest or weed control at 31 g/ha [4] [%]	pest or weed control at 125 g/ha [4] [%]	pest or weed control at 31 g/ha [5] [%]	pest or weed control at 125 g/ha [5] [%]	pest or weed control at 31 g/ha [6] [%]	pest or weed control at 125 g/ha [6] [%]	pest or weed control at 31 g/ha (Kochia (Kochia scoparia) [7]) [%]	pest or weed control at 125 g/ha (Kochia (Kochia scoparia) [7]) [%]	pest or weed control at 31 g/ha [8] [%]	pest or weed control at 125 g/ha [8] [%]	pest or weed control at 31 g/ha [9] [%]	pest or weed control at 125 g/ha [9] [%]	pest or weed control at 125 g/ha [10] [%]	pest or weed control at 31 g/ha [10] [%]	plant injury at 125 g/ha [11] [%]	plant injury at 31 g/ha [11] [%]	other results
CN1C[C@H](c2ccc3c(c2)C(F)(F)C(F)(F)O3)[C@@H](C(=O)Nc2cccc(F)c2F)C1=O [Compound 1271]	90	0	0	40	90	90	70	90	80	90	30	40	0	50	0	20	30	0	60	20	pest or weed control at 125 g/ha [12]: 60%; pest or weed control at 31 g/ha [12]: 40%; pest or weed control at 125 g/ha [13]: 30%; pest or weed control at 31 g/ha [13]: 0%; pest or weed control at 125 g/ha [14]: 80%; pest or weed control at 31 g/ha [14]: 20%; pest or weed control at 125 g/ha (Kochia (Kochia scoparia) [15]): 40%; pest or weed control at 31 g/ha (Kochia (Kochia scoparia) [15]): 20%; pest or weed control at 125 g/ha [16]: 30%; pest or weed control at 31 g/ha [16]: 20%; pest or weed control at 125 g/ha [17]: 60%; pest or weed control at 31 g/ha [17]: 60%; pest or weed control at 125 g/ha [18]: 0%; pest or weed control at 31 g/ha [18]: 0%; plant injury at 125 g/ha (corn (Zea mays)): 40%; plant injury at 31 g/ha (corn (Zea mays)): 30%
O=C1NC[C@H](c2cc(Cl)cc(Cl)c2)[C@H]1C(=O)Nc1cccc(F)c1F [Compound 1273]	90	0	0	30	60	80	0	40	80	90	0	50	0	20	0	0	20	0	30	0	pest or weed control at 125 g/ha [12]: 60%; pest or weed control at 31 g/ha [12]: 50%; pest or weed control at 125 g/ha [13]: 40%; pest or weed control at 31 g/ha [13]: 0%; pest or weed control at 125 g/ha [14]: 80%; pest or weed control at 31 g/ha [14]: 60%; pest or weed control at 125 g/ha (Kochia (Kochia scoparia) [15]): 60%; pest or weed control at 31 g/ha (Kochia (Kochia scoparia) [15]): 0%; pest or weed control at 125 g/ha [16]: 40%; pest or weed control at 31 g/ha [16]: 0%; pest or weed control at 125 g/ha [17]: 50%; pest or weed control at 31 g/ha [17]: 40%; pest or weed control at 125 g/ha [18]: 0%; pest or weed control at 31 g/ha [18]: 0%; plant injury at 125 g/ha (corn (Zea mays)): 60%; plant injury at 31 g/ha (corn (Zea mays)): 0%
